Laboratory results as given in article PMC10914731, “Homo-BacPROTAC-induced degradation of ClpC1 as a strategy against drug-resistant mycobacteria” (Nature Communications, 2024).
Converted amounts (≈) assume the structure as drawn. “And” between values parts separate entries of the source, which are not always exact repeats. Identical values can stand only once. Like-named read-outs stand apart in the source and are kept apart here. Where a SMILES comes first, the peptide text is derived from it. [ ]: non-standard residue; d: D form. NMeLeu(5-OH,4R) = CN[C@@H](C[C@@H](C)CO)C(=O)O; Phe(βR-OMe) = CO[C@H](c1ccccc1)[C@H](N)C(=O)O; Trp(1-Me) = Cn1cc(C[C@H](N)C(=O)O)c2ccccc21; NMeL = CN[C@@H](CC(C)C)C(=O)O; Pra = C#CC[C@H](N)C(=O)O

Assays:
in vitro = conditions: human
Method in brief: (§1)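 Permeability across Caco-2 monolayers was measured in both directions, apical-to-basolateral and basolateral-to-apical, in 10^-6 cm s-1. Efflux ratio = P(B−A)/P(A−B). Intrinsic permeability is the mean of P(A−B) and P(B−A).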

Caco-2 monolayers = experiment: in vitro
Method in brief: as §1

[1] = format: in vitro ADME, Mice
Method in brief: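 Compound at 1 µmol/l incubated with 0.5 mg/ml liver microsomes in 100 mM Tris-HCl pH 7.5, 6.5 mM MgCl2, 1 mM NADPH, 37 °C; acetonitrile-quenched at multiple time points, measured by HPLC-MS/MS. First-order half-lives converted to clearance as %Qh via well-stirred liver model.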

[2] = format: in vitro ADME, Human; conditions: clearance in hepatocytes
[3] = tested on: M. tuberculosis H37Rv (ATCC 27294); experiment: microbe, parasite or virus in culture; format: cell-based
Msm 607 = experiment: microbe, parasite or virus in culture; format: cell-based
[4] = tested on: Mtb (katG del) ATCC 35822; experiment: microbe, parasite or virus in culture; format: cell-based; conditions: Mycobacterium tuberculosis
Mtb # 11291 = experiment: microbe, parasite or virus in culture; format: cell-based; conditions: single well replicates
Mtb # 8673 = experiment: microbe, parasite or virus in culture; format: cell-based
Mtb ATCC 35825 = experiment: microbe, parasite or virus in culture; format: cell-based
Enterococcus faecium = experiment: MIC ESKAPES panel, Enterococcus faecium; format: cell-based
Method in brief: (§2)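 CLSI broth microdilution was run in Mueller Hinton broth with an inoculum of 3–7 × 10^5 cfu/ml at 37 °C. Turbidity was read on day 2; clear wells indicated growth inhibition.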

Klebsiella pneumoniae = experiment: MIC ESKAPES panel, Klebsiella pneumoniae; format: cell-based
Method in brief: as §2

Pseudomonas aeruginosa = experiment: MIC ESKAPES panel, Pseudomonas aeruginosa; format: cell-based
Method in brief: as §2

Mycobacterium abscessus = experiment: microbe, parasite or virus in culture; format: cell-based
[5] = target: endogenous ClpC1 in Msm #607 cells (Mycolicibacterium smegmatis, UniProt A0R574); format: cell-based, M. smegmatis
[6] = Gram-Negative Bacteria, replicates 1-3

endogenous ClpC1 in Msm #607 cells, sequence (A0R574 whole entry): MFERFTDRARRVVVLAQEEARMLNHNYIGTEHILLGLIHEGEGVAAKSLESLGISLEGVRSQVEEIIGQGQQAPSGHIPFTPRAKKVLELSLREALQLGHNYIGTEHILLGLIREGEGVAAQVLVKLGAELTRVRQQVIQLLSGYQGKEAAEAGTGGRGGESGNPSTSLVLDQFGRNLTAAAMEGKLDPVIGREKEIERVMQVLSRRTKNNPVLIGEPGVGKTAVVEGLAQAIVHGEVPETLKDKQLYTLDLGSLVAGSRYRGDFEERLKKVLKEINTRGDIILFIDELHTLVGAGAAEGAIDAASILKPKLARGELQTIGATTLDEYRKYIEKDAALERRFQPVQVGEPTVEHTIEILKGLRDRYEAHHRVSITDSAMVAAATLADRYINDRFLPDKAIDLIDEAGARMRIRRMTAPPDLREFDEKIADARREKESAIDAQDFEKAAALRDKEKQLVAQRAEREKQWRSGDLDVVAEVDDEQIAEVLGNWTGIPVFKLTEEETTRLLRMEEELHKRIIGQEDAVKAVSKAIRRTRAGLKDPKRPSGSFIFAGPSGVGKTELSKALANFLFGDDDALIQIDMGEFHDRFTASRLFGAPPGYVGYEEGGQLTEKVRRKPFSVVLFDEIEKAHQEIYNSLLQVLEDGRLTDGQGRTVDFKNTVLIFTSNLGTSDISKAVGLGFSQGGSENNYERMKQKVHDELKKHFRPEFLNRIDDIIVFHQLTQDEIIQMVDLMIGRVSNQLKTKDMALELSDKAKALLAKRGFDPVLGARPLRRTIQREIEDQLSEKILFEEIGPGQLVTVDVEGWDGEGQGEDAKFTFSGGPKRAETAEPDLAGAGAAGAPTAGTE

With `C#CC[C@@H]1NC(=O)[C@H](CC(C)C)N(C)C(=O)[C@H](C(C)C)NC(=O)[C@H]([C@H](OC)c2ccccc2)NC(=O)[C@H](C)NC(=O)[C@H](C[C@@H](C)CO)N(C)C(=O)[C@H](Cc2cn(C)c3ccccc23)NC1=O` [Compound 10] (cyclo(A[Phe(βR-OMe)]V[NMeL][Pra][Trp(1-Me)][NMeLeu(5-OH,4R)])) the Papp B→A (in vitro; Caco-2, CACO permeability PEBA, basolateral to apical) was 19 ×10⁻⁶ cm/s, the Papp A→B (in vitro; Caco-2, Caco-2 permeability P (A-B), apical to basolateral) was < 0.1 ×10⁻⁶ cm/s and the “CACO permeability PEBA” value (Caco-2 monolayers; basolateral to apical) was 0.000014 cm/s. The “Caco-2 Int. Perm” value (Caco-2 monolayers; mean value of P(A−B) and P(B−A)) was 7.1 10-6 cm s-1, the “Microsomal Stability Mouse QH” value ([1]; Mouse) was >88.400% and the “Microsomal Stability Mice” value ([1]; clearance in microsomes) was > 88 %Qh. For the same molecule, the “Hepatocyte Human” value [2] was 12 %Qh, the MIC ([3]; M. tuberculosis H37Rv 27294, single well replicates, read-out: MIC) was 3.125 µM (≈ 2.85 µg/mL) and the MIC ([3]; Mycobacterium tuberculosis, M. tuberculosis H37Rv 27294, single well replicates, read-out: MIC) was 3.12 µM (≈ 2.85 µg/mL). It also gave an MIC ([3]; Mycobacterium tuberculosis, M. tuberculosis H37Rv strain, read-out: MIC Mtb H37Rv Mean ± SD) of 3.1 µM (≈ 2.83 µg/mL), an MIC ([3]; Mycobacterium tuberculosis, Mtb H37Rv (Supplementary Table 2), read-out: MIC Mtb) of 3.1 µM (≈ 2.83 µg/mL) and an MIC ([3]; Mycobacterium tuberculosis, Mtb H37Rv, mean ± SD, n = 3 well replicates, read-out: MIC) of 3.1 µM (≈ 2.83 µg/mL). For the same molecule, the MIC ([3]; Mycobacterium tuberculosis, Set 1, read-out: MIC (Mtb H37Rv) Set 1) was 3.13 µM and 2.85 µg/mL, the MIC ([3]; Mycobacterium tuberculosis, Set 2, read-out: MIC (Mtb H37Rv) Set 2) was 3.13 µM and 2.85 µg/mL and the MIC ([3]; Mycobacterium tuberculosis, Set 3, done at a different day than Set 1 and Set 2, read-out: MIC (Mtb H37Rv) Set 3) was 3.13 µM and 2.85 µg/mL. The MIC ([3]; Mycobacterium tuberculosis, individual example (Supplementary Table 11), read-out: MIC Mtb H37Rv) was 3.1 µM and 2.9 µg/mL, the MIC ([3]; Mycobacterium tuberculosis, individual measurements (source data), read-out: Mtb MIC) was 3.12 µM (≈ 2.85 µg/mL) and the MIC ([3]; Mycobacterium tuberculosis, mean of 3 experiments +/- SD, unit taken from the sets above in the same table, read-out: MIC data (Mtb H37Rv) (+/- SD)) was 3.13 µM and 2.85 µg/mL. The MIC ([3]; Mycobacterium tuberculosis, single determinations, read-out: Mtb MIC) was 3.12 µM (≈ 2.85 µg/mL), the MIC ([3]; individual measurements (source data), read-out: Mtb MIC) was 3.125 µM (≈ 2.85 µg/mL) and the MIC (Msm 607; Mycolicibacterium smegmatis, 607, read-out: MIC Msm 607) was 3.1 µM (≈ 2.83 µg/mL). For the same molecule, the MIC (Msm 607; Mycolicibacterium smegmatis, 607, read-out: MIC Msm #607, individual example (Supplementary Table 11)) was 6.3 µM and 5.7 µg/mL, the MIC (Msm 607; Mycolicibacterium smegmatis, 607, read-out: Msm 607 MIC, single determinations) was 3.12 µM (≈ 2.85 µg/mL) and the MIC (Msm 607; Mycolicibacterium smegmatis, ATCC607, Set-1, read-out: MIC (Msm ATCC607) Set-1) was 3.12 µM and 2.85 µg/mL. The MIC (Msm 607; Mycolicibacterium smegmatis, ATCC607, Set-2, read-out: MIC (Msm ATCC607) Set-2) was 6.25 µM and 5.71 µg/mL, the MIC (Msm 607; Mycolicibacterium smegmatis, ATCC607, Set-3, done at a different day than Set 1 and Set 2, read-out: MIC (Msm ATCC607) Set-3) was 3.12 µM and 2.85 µg/mL and the MIC (Msm 607; Mycolicibacterium smegmatis, ATCC607, mean of 3 experiments ± SD, read-out: MIC including standard deviations (Msm ATCC607)) was 4.16 µM and 3.8 µg/mL. For the same molecule, the MIC ([4]; ATCC35822, M. tuberculosis ATCC 35822, single well replicates) was 1.56 µM (≈ 1.42 µg/mL), the MIC ([4]; ATCC35822, Mtb (katG del) ATCC 35822, mean ± SD, n = 3 well replicates) was 1.6 µM (≈ 1.46 µg/mL) and the “MIC Mtb # 11291” value (Mtb # 11291) was 0.36 µg/mL (≈ 0.394 µM). For the same molecule, the MIC (Mtb # 11291; read-out: MIC Mtb # 11291) was 0.39 µM (≈ 0.356 µg/mL), the MIC (Mtb # 8673; Mycobacterium tuberculosis, mean, n = 2 well replicates) was 0.4 µM and 0.4 µg/mL and the MIC (Mtb # 8673; Mycobacterium tuberculosis, single well replicates) was 0.39 µM and 0.36 µg/mL. The MIC (Mtb # 8673; single well replicates) was 0.39 µM (≈ 0.356 µg/mL), the “MIC Mtb # 8673” value (Mtb # 8673; single well replicates) was 0.36 µg/mL (≈ 0.394 µM) and the MIC (Mtb ATCC 35825; Mycobacterium tuberculosis, ATCC35825, mean, n = 2 well replicates) was 0.4 µM and 0.4 µg/mL. The MIC (Mtb ATCC 35825; Mycobacterium tuberculosis, ATCC35825, single well replicates) was 0.36 µg/mL and 0.39 µM, the MIC (Mtb ATCC 35825; single well replicates) was 0.39 µM (≈ 0.356 µg/mL) and the “MIC Mtb ATCC 35825” value (Mtb ATCC 35825; single well replicates) was 0.36 µg/mL (≈ 0.394 µM). For the same molecule, the MIC (Enterococcus faecium; Enterococcus faecium, Gram positive, n = 3 well replicates) was > 50 µM, the MIC (Enterococcus faecium; Enterococcus faecium, Gram-Positive Bacteria, replicates 1-3) was > 45.6 µg/mL and the MIC (Enterococcus faecium; Gram-Positive Bacteria, replicates 1-3) was >50 µM. The MIC (Klebsiella pneumoniae; [6]) was >50 µM, the MIC (Klebsiella pneumoniae; Klebsiella pneumoniae, Gram negative, n = 3 well replicates) was > 50 µM and the MIC (Klebsiella pneumoniae; Klebsiella pneumoniae, Gram-Negative Bacteria, replicates 1-3) was > 45.6 µg/mL. For the same molecule, the MIC (Pseudomonas aeruginosa; [6]) was >50 µM, the MIC (Pseudomonas aeruginosa; Pseudomonas aeruginosa, Gram negative, n = 3 well replicates) was > 50 µM and the MIC (Pseudomonas aeruginosa; Pseudomonas aeruginosa, Gram-Negative Bacteria, replicates 1-3) was > 45.6 µg/mL. The “MIC (µg/ml) Mycobacterium abscessus” value (Mycobacterium abscessus; Experiment 2, three replicate columns) was 11.41 µg/mL (≈ 12.5 µM), the MIC (Mycobacterium abscessus; Experiment 2, three replicate columns, read-out: MIC (µM) Mycobacterium abscessus) was 12.5 µM and the MIC (Mycobacterium abscessus; Mycobacteroides abscessus, Experiment 1, read-out: MIC Mycobacterium abscessus) was 12.5 µM and 11.4 µg/mL. It also gave an MIC (Mycobacterium abscessus; Mycobacteroides abscessus, Experiment 2, three replicate columns, read-out: MIC (µM) Mycobacterium abscessus) of 12.5 µM, an MIC (Mycobacterium abscessus; Mycobacteroides abscessus, Experiment 2, three replicate columns, read-out: MIC (µg/ml) Mycobacterium abscessus) of 11.4 µg/mL and an MIC (Mycobacterium abscessus; Mycobacteroides abscessus, mean ± SD, read-out: MIC Mycobacterium abscessus) of 12.5 µM. For the same molecule, the ClpC1 peak area ([5]; 100 µM, Figure 5c, well replicates of 3 experiments) was 412581 and 373241 and 483939 and 462615 and 61275.5 and 294306 and 484139 and 455205 and 481589 and the “intracellular degradation of ClpC1” value ([5]; Msm #607, 24 h, result in words) was “did not induce degradation of ClpC1”.
